Measurements: article PMC10173323 (ACS Omega, 2023)

Molecular target: DNA gyrase (Escherichia coli, UniProt P0AES4+P0AES6)
Assay: DNA supercoiling gel assay
Assay type: biochemical

DNA gyrase, sequence (P0AES4 2-875, one chain of several): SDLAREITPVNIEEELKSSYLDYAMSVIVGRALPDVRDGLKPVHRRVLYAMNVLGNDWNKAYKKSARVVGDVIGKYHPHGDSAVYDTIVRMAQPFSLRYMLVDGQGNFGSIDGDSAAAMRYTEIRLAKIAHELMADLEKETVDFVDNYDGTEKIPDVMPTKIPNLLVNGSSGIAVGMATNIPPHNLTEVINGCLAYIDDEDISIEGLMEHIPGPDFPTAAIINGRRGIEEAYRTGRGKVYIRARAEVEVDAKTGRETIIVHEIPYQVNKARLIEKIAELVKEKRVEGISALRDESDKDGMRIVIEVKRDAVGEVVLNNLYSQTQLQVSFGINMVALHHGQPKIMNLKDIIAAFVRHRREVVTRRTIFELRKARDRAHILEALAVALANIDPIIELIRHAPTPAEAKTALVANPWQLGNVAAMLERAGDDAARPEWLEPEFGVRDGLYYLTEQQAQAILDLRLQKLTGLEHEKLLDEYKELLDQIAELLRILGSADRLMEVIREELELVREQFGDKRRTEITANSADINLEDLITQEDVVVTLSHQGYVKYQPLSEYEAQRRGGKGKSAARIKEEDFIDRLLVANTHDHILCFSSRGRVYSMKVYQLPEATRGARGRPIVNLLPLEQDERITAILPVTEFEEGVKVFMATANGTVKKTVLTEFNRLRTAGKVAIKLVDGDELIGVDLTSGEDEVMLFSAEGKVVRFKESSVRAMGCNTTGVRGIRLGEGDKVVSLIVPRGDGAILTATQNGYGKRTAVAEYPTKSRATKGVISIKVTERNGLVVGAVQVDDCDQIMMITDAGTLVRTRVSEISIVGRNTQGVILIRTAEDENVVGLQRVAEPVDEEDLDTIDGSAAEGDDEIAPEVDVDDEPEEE

SMILES | IC50 [nM]
COc1c2occc2c(OC)c2c(=O)cc(C)oc12 [khellin] | 3160
O=c1c(-c2ccc(O)cc2)coc2cc(O)ccc12 [daidzein] | 165
